Measurements as given in patent US20040024543A1, “Methods and systems for analyzing complex biological systems” (priority 2001, published 2004).
Entries after “also recorded” stand apart in the source; their conditions may differ.

Key:
Arabidopsis thaliana [1] = assay: SOA1 phenotypic analysis of herbicide-treated Arabidopsis (MIC, Tmic, leaf traits); format: in vivo; conditions: for tMic (Dev.): coded score of time to full range of symptoms at MIC; for leafCurling (Dev.) / leafTwisting (Dev.) / leafWidth (Dev.) / matureLeafAnthocyanins (Dev.) / matureLeafChlorosis (Dev.) / matureLeafNecrosis (Dev.) / newLeafAnthocyanins (Dev.) / newLeafChlorosis (Dev.) / newLeafNecrosis (Dev.) / pointedLeaves (Dev.): numeric value standardized to mock treated; for characteristic morphological symptoms: SOA1, in words
Arabidopsis thaliana [2] = assay: MOA1 phenotypic profiling of sprayed Arabidopsis (symptom scores, cluster analysis); format: in vivo; conditions: MOA1, in words
Arabidopsis thaliana [3] = assay: MOA1 gene expression profiling (22,000 gene arrays) of sprayed Arabidopsis; conditions: for number of gene expression perturbations compared to the other treatments: 1 hr; for No. of Lethal Genes Altered: regulated genes at 1 hr compared with internal list of essential genes
Arabidopsis thaliana [4] = assay: MOA1 biochemical (metabolite) profiling by LC-MS and GC-MS of sprayed Arabidopsis; conditions: for stress-related (commonly regulated) metabolites: MOA1, 20 min and 1 hour after spraying
[5] = tested on: Saccharomyces cerevisiae wild type strain BY4743; assay: AF1 yeast metabolite analysis by GC-MS and LC-MS after antifungal drug treatment; format: cell-based
Magnaporthe grisea = format: cell-based
Arabidopsis = conditions: nitrate addition to N-starved plants; cited from earlier work
[6] = MOA1, early time points / after one hour

## O=C(O)COc1ccc(Cl)cc1Cl [2,4-D]
Arabidopsis thaliana [1]; SOA1
  tMic (Dev.): 2
  leafCurling (Dev.): 1
  leafTwisting (Dev.): 2
  leafWidth (Dev.): −1
  matureLeafAnthocyanins (Dev.): 1
  matureLeafChlorosis (Dev.): 2
  matureLeafNecrosis (Dev.): 0
  newLeafAnthocyanins (Dev.): 0
  newLeafChlorosis (Dev.): 1
  newLeafNecrosis (Dev.): 0
  pointedLeaves (Dev.): 0
Arabidopsis thaliana [1]; SOA1, three-week-old plants sprayed with herbicide, classes pictured in FIG. 12
  Symtom Class: 5

## O=C(O)c1cc(Oc2ccc(C(F)(F)F)cc2Cl)ccc1[N+](=O)[O-] [Acifluorfen]
Arabidopsis thaliana [1]
  characteristic morphological symptoms: Necrotic leaf flecks

## Nc1nc[nH]n1 [Amitrole]
Arabidopsis thaliana [1]
  characteristic morphological symptoms: leaf bleaching and leaf enlargement
Arabidopsis thaliana [2]
  observed phenotype: chlorosis and not true bleaching

## COC(=O)NS(=O)(=O)c1ccc(N)cc1 [Asulam]
Arabidopsis thaliana [3]
  number of gene expression perturbations compared to the other treatments: fewest gene expression perturbations
  No. of Lethal Genes Altered: 5

## CCNc1nc(Cl)nc(NC(C)C)n1 [Atrazine]
Arabidopsis thaliana [1]
  characteristic morphological symptoms: rapid and widespread leaf necrosis

## CC(C)N1C(=O)c2ccccc2NS1(=O)=O [Bentazon]
Arabidopsis thaliana [1]
  characteristic morphological symptoms: rapid and widespread leaf necrosis

## COC(=O)c1cc(Oc2ccc(Cl)cc2Cl)ccc1[N+](=O)[O-] [Bifenox]
Arabidopsis thaliana [1]
  characteristic morphological symptoms: Necrotic leaf flecks

## CCSC(=O)N(CC(C)C)CC(C)C [Butylate]
Arabidopsis thaliana [2]
  observed phenotype: neither showed a strong herbicidal phenotype
Arabidopsis thaliana [4]
  stress-related (commonly regulated) metabolites: neither butylate nor chlorpropham treatment resulted in many changes in these commonly regulated metabolites

## CC(C)OC(=O)Nc1cccc(Cl)c1 [Chloropropham]
Arabidopsis thaliana [2]
  observed phenotype: neither showed a strong herbicidal phenotype
Arabidopsis thaliana [4]
  stress-related (commonly regulated) metabolites: neither butylate nor chlorpropham treatment resulted in many changes in these commonly regulated metabolites

## COc1nc(C)nc(NC(=O)NS(=O)(=O)c2ccccc2Cl)n1 [Chlorsulfuron]
Arabidopsis thaliana [1]
  characteristic morphological symptoms: anthocyanin accumulation in the older leaves accompanied by chlorosis of the newly emerging leaves
Arabidopsis thaliana [3]
  No. of Lethal Genes Altered: 8

## c1cc[n+]2c(c1)-c1cccc[n+]1CC2 [Diquat]
Arabidopsis thaliana [1]
  characteristic morphological symptoms: rapid and widespread leaf necrosis
Arabidopsis thaliana [1]; SOA1
  tMic (Dev.): 2

## CN(C)C(=O)Nc1ccc(Cl)c(Cl)c1 [Diuron]
Arabidopsis thaliana [1]
  characteristic morphological symptoms: rapid and widespread leaf necrosis
Arabidopsis thaliana [1]; SOA1
  tMic (Dev.): 1

## OC(Cn1cncn1)(Cn1cncn1)c1ccc(F)cc1F [Fiuconazole]
[5]; 5hydroxyLtryptophan, pLC
  Fold Change: 0
[5]; adenosine, pLC
  Fold Change: 0

## OC(Cn1cncn1)(Cn1cncn1)c1ccc(F)cc1F [Fluconazole]
[5]; 4-aminobenzoic acid, pLC
  Fold Change: 0
[5]; 4-methylcatechol, nLC
  Fold Change: 0
[5]; 4-methylcatechol, pLC
  Fold Change: 0
[5]; 5hydroxyLtryptophan, nLC
  Fold Change: 0
[5]; 6-benzylaminopurine, nLC
  Fold Change: 0
[5]; 6benzylaminopurine, pLC
  Fold Change: 0
[5]; DL-aminoadipic acid, pLC
  Fold Change: 0.1155
[5]; DLaminoadipic acid, nLC
  Fold Change: 0.443
[5]; abscisic acid, nLC
  Fold Change: 0
[5]; abscisic acid, pLC
  Fold Change: 0
[5]; adenine, nLC
  Fold Change: 0
[5]; adenosine, nLC
  Fold Change: 0
[5]; allantoic acid, pLC
  Fold Change: 0
[5]; anthranilic acid, nLC
  Fold Change: 0
[5]; anthranilic acid, pLC
  Fold Change: 0
[5]; arginine, nLC
  Fold Change: 0.6484
[5]; arginine, pLC
  Fold Change: 0.1179
[5]; argininosuccinate, nLC
  Fold Change: 0
[5]; argininosuccinate, pLC
  Fold Change: 0
[5]; asparagine, GC
  Fold Change: 0.3999
[5]; asparagine, nLC
  Fold Change: 0.3545
[5]; asparagine, pLC
  Fold Change: 0.3192
[5]; aspartic acid, GC
  Fold Change: 0.4337
[5]; aspartic acid, pLC
  Fold Change: 0.214
[5]; aspartic, nLC
  Fold Change: 0.4993
[5]; benzoic acid, nLC
  Fold Change: 0
[5]; biotin, nLC
  Fold Change: 0.3455
[5]; biotin, pLC
  Fold Change: 0
[5]; caffeic acid, nLC
  Fold Change: −0.4711
[5]; caffeine, pLC
  Fold Change: 0
[5]; campesterol, GC
  Fold Change: 0
[5]; catechol, nLC
  Fold Change: 0
[5]; cinnamic acid, nLC
  Fold Change: 0
[5]; citric acid TME, pLC
  Fold Change: 0
[5]; citricanoic/itaconi, nLC
  Fold Change: 0
[5]; citrulline, nLC
  Fold Change: 0
[5]; citrulline, pLC
  Fold Change: 0.08252
[5]; coumaric acid, nLC
  Fold Change: 0
[5]; cytidine, nLC
  Fold Change: −0.7969
[5]; cytidine, pLC
  Fold Change: 0
[5]; cytosine, nLC
  Fold Change: 0
[5]; cytosine, pLC
  Fold Change: 0
[5]; decanoic acid, nLC
  Fold Change: 0.1846
[5]; desmosterol, GC
  Fold Change: 0
[5]; diaminopimelic acid, nLC
  Fold Change: 0
[5]; diaminopimelic acid, pLC
  Fold Change: 0
[5]; dihydrofolic acid, nLC
  Fold Change: 0
[5]; dihydrofolic acid, pLC
  Fold Change: 0
[5]; dipicolinic acid, pLC
  Fold Change: 0
[5]; disaccaride1, GC
  Fold Change: 0.3883
[5]; disaccaride2, GC
  Fold Change: 0.1517
[5]; disaccaride3, GC
  Fold Change: 0.5803
[5]; ergosterol, GC
  Fold Change: 0.948
[5]; estrone, nLC
  Fold Change: 0
[5]; farnesol, nLC
  Fold Change: 0
[5]; folic acid, nLC
  Fold Change: 0
[5]; folic acid, pLC
  Fold Change: 0
[5]; fucosterol, GC
  Fold Change: 6.665
[5]; fumaric/3m2oxobutan, nLC
  Fold Change: 0.6009
[5]; gallic acid, nLC
  Fold Change: 0.5071
[5]; gibberellic, nLC
  Fold Change: 0
[5]; glucosamine6PO4, nLC
  Fold Change: −0.9951
[5]; glucosamine6PO4, pLC
  Fold Change: 0
[5]; glucosamine, pLC
  Fold Change: 0
[5]; glutamate, pLC
  Fold Change: −0.06179
[5]; glutamic/acetylseri, nLC
  Fold Change: 0.3842
[5]; glutamine, GC
  Fold Change: 0.5242
[5]; glutamine/lysine, nLC
  Fold Change: 0.3309
[5]; glutamine/lysine, pLC
  Fold Change: 0.2242
[5]; glutathione, pLC
  Fold Change: −0.05832
[5]; glycanopyrose, GC
  Fold Change: 1.202
[5]; glycerol, GC
  Fold Change: 0.2187
[5]; glycine, GC
  Fold Change: −0.1037
[5]; guanine, nLC
  Fold Change: 0
[5]; guanosine, nLC
  Fold Change: −0.993
[5]; guanosine, pLC
  Fold Change: −0.9981
[5]; hexadecanoic acid, GC
  Fold Change: 0.1343
[5]; histidine, nLC
  Fold Change: 0
[5]; histidine, pLC
  Fold Change: 0
[5]; homogentisic/uric, nLC
  Fold Change: 0
[5]; hydrocortisone, nLC
  Fold Change: 0
[5]; hydrocortisone, pLC
  Fold Change: 0
[5]; hypoxanthine, nLC
  Fold Change: 0.7757
[5]; hypoxanthine, pLC
  Fold Change: 0.1298
[5]; indole3pyruvic acid, nLC
  Fold Change: 0
[5]; inostol/glucos/sorb, nLC
  Fold Change: −0.4744
[5]; iso citric acid, GC
  Fold Change: 0.3923
[5]; isocitric/citric/qu, nLC
  Fold Change: 1.457
[5]; isoleucine, GC
  Fold Change: 0.391
[5]; itaconic acid dimes, pLC
  Fold Change: 0
[5]; jasmonic acid, nLC
  Fold Change: 0
[5]; kinetin, nLC
  Fold Change: 0
[5]; kinetin, pLC
  Fold Change: 0
[5]; lactic acid, nLC
  Fold Change: −0.0439
[5]; lanosterol, GC
  Fold Change: 8.462
[5]; lauric acid, nLC
  Fold Change: 0.3906
[5]; leucine, GC
  Fold Change: 0.3387

## O=C(O)CNCP(=O)(O)O [Glyphosate]
Arabidopsis thaliana [1]
  characteristic morphological symptoms: anthocyanin accumulation in the older leaves accompanied by chlorosis of the newly emerging leaves
Arabidopsis thaliana [1]; SOA1
  tMic (Dev.): 2
Magnaporthe grisea
  growth of M. grisea with ammonium or glutamine provided: Little growth defect
Magnaporthe grisea; 1.0 mg/ml
  growth inhibition and remediation: remediated by inclusion of aromatic amino acids
Arabidopsis thaliana [4]; [6]
  tyrosine level relative to the control: decreased

## CC(C)C1(C)N=C(c2ncccc2C(=O)O)NC1=O (stereo not shown) [Imazapyr]
Arabidopsis thaliana [1]
  characteristic morphological symptoms: anthocyanin accumulation in the older leaves accompanied by chlorosis of the newly emerging leaves
Arabidopsis thaliana [4]
  stress-related (commonly regulated) metabolites: Only a few, if any

## CCc1cnc(C2=NC(C)(C(C)C)C(=O)N2)c(C(=O)O)c1 (stereo not shown) [Imazethapyr]
Arabidopsis thaliana [1]
  characteristic morphological symptoms: anthocyanin accumulation in the older leaves accompanied by chlorosis of the newly emerging leaves

## CS(=O)(=O)c1cc(C(F)(F)F)ccc1C(=O)c1cnoc1C1CC1 [Isoxaflutole]
Arabidopsis thaliana [3]
  No. of Lethal Genes Altered: 15
Arabidopsis thaliana [4]; MOA1, early time points
  Alpha-tocopherol levels relative to the control: not significantly changed
Arabidopsis thaliana [4]; [6]
  phenylalanine level relative to the control: up-regulated; also recorded: began to accumulate
  tyrosine level relative to the control: up-regulated; also recorded: began to accumulate

## CSc1nnc(C(C)(C)C)c(=O)n1N [Metribuzin]
Arabidopsis thaliana [1]
  characteristic morphological symptoms: rapid and widespread leaf necrosis

## O=C(O)c1ccccc1C(=O)Nc1cccc2ccccc12 [Naptalam]
Arabidopsis thaliana [3]
  number of gene expression perturbations compared to the other treatments: fewest gene expression perturbations
  No. of Lethal Genes Altered: 3

## O=[N+]([O-])O [Nitrate, nitrate]
Arabidopsis
  Nitrate Regulation of Glutamate synthetase: ↑
  Nitrate Regulation of Glutamine synthetase (2): ↑
  Nitrate Regulation of MADs Box (2): ↓
  Nitrate Regulation of MYB transcription factor: ↑
  Nitrate Regulation of Malate Dehydrogenase: ↑
  Nitrate Regulation of Nitrate transporter: ↑
  Nitrate Regulation of Phosphate transporter: ↑
  Nitrate Regulation of Transaldolase: ↑
  Nitrate Regulation of Transketolase: ↑

## CNc1cnn(-c2cccc(C(F)(F)F)c2)c(=O)c1Cl [Norflurazon]
Arabidopsis thaliana [4]
  stress-related (commonly regulated) metabolites: Only a few, if any

## C[n+]1ccc(-c2cc[n+](C)cc2)cc1 [Paraquat]
Arabidopsis thaliana [1]
  characteristic morphological symptoms: rapid and widespread leaf necrosis
Arabidopsis thaliana [1]; SOA1
  tMic (Dev.): 2
  leafCurling (Dev.): 2
  leafTwisting (Dev.): 0
  leafWidth (Dev.): −1
  matureLeafAnthocyanins (Dev.): 0
  matureLeafChlorosis (Dev.): 1
  matureLeafNecrosis (Dev.): 4
  newLeafAnthocyanins (Dev.): 0
  newLeafChlorosis (Dev.): 1
  newLeafNecrosis (Dev.): 4
  pointedLeaves (Dev.): 1
